Data from US10717733B2, “Haloallylamine indole and azaindole derivative inhibitors of lysyl oxidases and uses thereof” (PHARMAXIS LTD., priority 2016, dated 2020).
Where a name gives a salt, the structure may show the parent alone.

Key:
Type in all cases: biochemical
[1] = biological target: Human LOXL2 (Homo sapiens (Human), UniProt Q9Y4K0); experiment: LOXL2 inhibition, peroxidase-coupled Amplex Red amine oxidase assay; conditions: 30 min preincubation at 37° C., putrescine substrate
Outline: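 Enzyme in 1.2 M urea, 50 mM sodium borate pH 8.2 with 1 μM mofegiline and 0.5 mM pargyline, preincubated 30 min at 37° C with compound (11-point CRC). Putrescine at twice KM (10 mM for LOXL2) with Amplex Red/HRP; fluorescence (ex 565, em 590) read kinetically 30 min; IC50 from slopes.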

[2] = biological target: human recombinant SSAO/VAP-1 (Homo sapiens (Human), UniProt Q16853); experiment: Inhibition of human recombinant SSAO/VAP-1 amine oxidase activity; conditions: 30 min preincubation at 37° C., 600 μM benzylamine
Outline: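 Purified SSAO/VAP-1 (residues 34-763, expressed in CHO Lec 8 cells; 0.25 μg/mL) preincubated 30 min at 37° C with compound in 0.1 M sodium phosphate pH 7.4. Reaction mix of 600 μM benzylamine, 120 μM Amplex Red and 1.5 U/mL HRP added; fluorescence (ex 565/em 590 nm) read every 2.5 min for 30 min; IC50 from kinetic slopes over 4-11 point curves.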

[3] = biological target: Bovine LOX (Bos taurus (Bovine), UniProt P33072); experiment: LOX inhibition, peroxidase-coupled Amplex Red amine oxidase assay; conditions: 30 min preincubation at 37° C., putrescine substrate
Outline: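 Bovine LOX in 1.2 M urea, 50 mM sodium borate pH 8.2 with 1 μM mofegiline and 0.5 mM pargyline; putrescine at twice KM (e.g. 20 mM for LOX) with Amplex Red/HRP. Fluorescence (ex 565/em 590 nm) read kinetically over 30 min at 37–45 °C; IC50 from slopes.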

Bovine LOX, sequence (P33072 170-418): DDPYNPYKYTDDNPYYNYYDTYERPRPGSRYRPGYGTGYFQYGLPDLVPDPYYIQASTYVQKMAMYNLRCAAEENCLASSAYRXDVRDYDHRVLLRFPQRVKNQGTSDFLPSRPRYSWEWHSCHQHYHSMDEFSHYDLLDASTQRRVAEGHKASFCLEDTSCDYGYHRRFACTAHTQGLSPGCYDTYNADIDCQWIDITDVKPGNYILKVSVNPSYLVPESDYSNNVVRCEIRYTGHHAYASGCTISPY
Human LOXL2, sequence (Q9Y4K0 26-774): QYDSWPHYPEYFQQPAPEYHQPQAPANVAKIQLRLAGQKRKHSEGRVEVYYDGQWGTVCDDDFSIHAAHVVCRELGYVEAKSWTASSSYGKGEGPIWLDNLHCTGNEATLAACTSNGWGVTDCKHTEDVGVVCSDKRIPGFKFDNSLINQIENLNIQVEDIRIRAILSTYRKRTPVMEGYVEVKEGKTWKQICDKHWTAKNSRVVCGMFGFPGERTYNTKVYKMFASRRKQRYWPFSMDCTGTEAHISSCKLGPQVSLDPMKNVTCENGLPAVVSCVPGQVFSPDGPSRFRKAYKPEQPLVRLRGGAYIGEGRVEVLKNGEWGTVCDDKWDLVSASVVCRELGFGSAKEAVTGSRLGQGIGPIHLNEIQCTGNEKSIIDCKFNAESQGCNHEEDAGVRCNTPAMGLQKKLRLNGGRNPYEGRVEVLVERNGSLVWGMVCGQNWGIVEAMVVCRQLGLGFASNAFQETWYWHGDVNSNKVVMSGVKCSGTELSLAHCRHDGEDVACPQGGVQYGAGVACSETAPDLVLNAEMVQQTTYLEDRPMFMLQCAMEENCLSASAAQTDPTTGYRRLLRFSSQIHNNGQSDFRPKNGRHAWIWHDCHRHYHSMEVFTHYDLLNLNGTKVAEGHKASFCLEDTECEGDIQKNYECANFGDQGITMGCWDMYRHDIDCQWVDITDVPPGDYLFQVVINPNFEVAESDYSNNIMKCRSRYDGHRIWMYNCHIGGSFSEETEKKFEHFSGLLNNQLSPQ
human recombinant SSAO/VAP-1, sequence (Q16853 34-763): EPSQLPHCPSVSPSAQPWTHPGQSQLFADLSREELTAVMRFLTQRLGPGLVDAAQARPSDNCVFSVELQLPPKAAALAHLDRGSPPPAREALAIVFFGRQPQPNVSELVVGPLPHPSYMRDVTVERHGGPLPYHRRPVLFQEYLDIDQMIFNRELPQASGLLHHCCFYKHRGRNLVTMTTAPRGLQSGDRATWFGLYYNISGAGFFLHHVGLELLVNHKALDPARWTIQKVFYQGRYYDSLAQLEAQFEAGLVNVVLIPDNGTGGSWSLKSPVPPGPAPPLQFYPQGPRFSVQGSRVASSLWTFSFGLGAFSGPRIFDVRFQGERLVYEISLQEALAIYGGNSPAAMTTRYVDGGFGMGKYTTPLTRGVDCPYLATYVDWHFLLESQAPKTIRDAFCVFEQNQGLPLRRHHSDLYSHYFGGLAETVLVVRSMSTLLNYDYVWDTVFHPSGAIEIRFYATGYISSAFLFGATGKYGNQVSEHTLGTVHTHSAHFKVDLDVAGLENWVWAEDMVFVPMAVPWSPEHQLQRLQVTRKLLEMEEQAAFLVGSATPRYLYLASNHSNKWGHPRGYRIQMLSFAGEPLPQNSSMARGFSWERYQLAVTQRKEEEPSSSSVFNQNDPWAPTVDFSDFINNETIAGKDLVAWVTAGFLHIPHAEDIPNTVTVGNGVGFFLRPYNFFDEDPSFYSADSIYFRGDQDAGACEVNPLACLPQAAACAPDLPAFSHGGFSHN

Compound | IC50 [1] | IC50 [2] | IC50 [3]
CCOC(=O)c1ccc2c(c1)c(-c1cccc(S(=O)(=O)N(C)C)c1)c(C)n2C/C(F)=C/CN [Compound 12, (Z)-ethyl 1-(4-amino-2-fluorobut-2-en-1-yl)-3-(3-(N,N-dimethylsulfamoyl)phenyl)-2-methyl-1H-indole-5-carboxylate] | < 300 nM | > 3000 nM | > 300 nM
Cc1c(-c2cccc(S(=O)(=O)N(C)C)c2)c2ncccc2n1C/C(F)=C/CN [Compound 25, (Z)-3-(1-(4-amino-2-fluorobut-2-en-1-yl)-2-methyl-1H-pyrrolo[3,2-b]pyridin-3-yl)-N,N-dimethylbenzenesulfonamide Dihydrochloride] | < 300 nM | > 3000 nM | > 300 nM
Cc1ccc2c(n1)c(-c1cccc(S(C)(=O)=O)c1)c(C)n2C/C(F)=C/CN [Compound 112, (Z)-4-(2,5-dimethyl-3-(3-(methylsulfonyl)phenyl)-1H-pyrrolo[3,2-b]pyridin-1-yl)-3-fluorobut-2-en-1-amine Dihydrochloride] | < 300 nM | > 3000 nM | > 300 nM
